For 19 compounds, T/C results are on record in PubChem BioAssay AID248 (DTP/NCI, 2004).

Several values for one entry are separate records, joined by “and”; a condition that tells them apart may be missing. Identical values can stand only once. Toxic doses and inconclusive results are not listed.

This assay relates to L1210 leukemia ip in BDF1 mice, survival T/C. In words: NCI In Vivo Anticancer Drug Screen. Data for tumor model L1210 Leukemia (intraperitoneal) in B6D2F1 (BDF1) mice. Particulars: endpoint: mean survival time, higher = longer survival. In short, it runs like this:
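Value reflects the ratio of survival in compound-treated mice to survival in vehicle-treated controls, with both groups carrying the same transplanted tumor.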

Where [1] appears, read: dose: 25.0 mg/kg/injection, schedule: Q01DX009 (ip), vehicle: saline.
The mark [2] stands for this setting: dose: 50.0 mg/kg/injection, schedule: Q01DX009 (ip), vehicle: saline.
Setting [3] is: dose: 50.0 mg/kg/injection, schedule: Q01DX009 (ip), vehicle: Klucel (hydroxypropylcellulose) (HPC).
Setting [4] is: dose: 100.0 mg/kg/injection, schedule: Q01DX009 (ip), vehicle: Klucel (hydroxypropylcellulose) (HPC).
The mark [5] stands for this setting: dose: 200.0 mg/kg/injection, schedule: Q01DX009 (ip), vehicle: Klucel (hydroxypropylcellulose) (HPC).
[6] abbreviates: dose: 100.0 mg/kg/injection, schedule: Q04DX003 (ip), vehicle: saline with Tween-80.
Setting [7] is: dose: 200.0 mg/kg/injection, schedule: Q04DX003 (ip), vehicle: saline with Tween-80.
Setting [8] is: dose: 400.0 mg/kg/injection, schedule: Q04DX003 (ip), vehicle: saline with Tween-80.
[9] abbreviates: dose: 50.0 mg/kg/injection, schedule: Q01DX001 (ip), vehicle: carboxymethylcellulose (CMC).
Where [10] appears, read: dose: 100.0 mg/kg/injection, schedule: Q01DX001 (ip), vehicle: carboxymethylcellulose (CMC).
The mark [11] stands for this setting: dose: 200.0 mg/kg/injection, schedule: Q01DX001 (ip), vehicle: carboxymethylcellulose (CMC).
[12] abbreviates: dose: 400.0 mg/kg/injection, schedule: Q01DX001 (ip), vehicle: carboxymethylcellulose (CMC).
Setting [13] is: dose: 100.0 mg/kg/injection, schedule: Q01DX009 (ip), vehicle: saline with Tween-80.
The mark [14] stands for this setting: dose: 200.0 mg/kg/injection, schedule: Q01DX009 (ip), vehicle: saline with Tween-80.
The mark [15] stands for this setting: dose: 100.0 mg/kg/injection, schedule: Q04DX003 (ip), vehicle: Klucel (hydroxypropylcellulose) (HPC).
[16] abbreviates: dose: 200.0 mg/kg/injection, schedule: Q04DX003 (ip), vehicle: Klucel (hydroxypropylcellulose) (HPC).
The mark [17] stands for this setting: dose: 400.0 mg/kg/injection, schedule: Q01DX009 (ip), vehicle: Klucel (hydroxypropylcellulose) (HPC).
[18] abbreviates: dose: 400.0 mg/kg/injection, schedule: Q04DX003 (ip), vehicle: Klucel (hydroxypropylcellulose) (HPC).

On to `CCC12CCC(=O)C=C1CCCC2=O` (stereo not drawn), for which the T/C was 100 % of control under setting [1]; 97 % of control under setting [2]; 90 % of control (dose: 100.0 mg/kg/injection, schedule: Q01DX009 (ip), vehicle: saline).
For `Nc1cc(Cl)nc(-c2ccccc2)n1`, the T/C by setting is: under setting [3], 98 % of control; under setting [4], 98 % of control; under setting [5], 102 % of control.
`N/N=C\C(=N/N)C(O)C(O)C(O)C(O)CO` (stereo not drawn): the T/C was 86 % of control under setting [6], 88 % of control under setting [7] and 93 % of control under setting [8].
For `O=[N+]([O-])CC(Nc1ccccc1)c1ccccc1` (stereo not drawn), the T/C (dose: 12.5 mg/kg/injection, schedule: Q01DX009 (ip), vehicle: Klucel (hydroxypropylcellulose) (HPC)) was 108 % of control; the T/C (dose: 25.0 mg/kg/injection, schedule: Q01DX009 (ip), vehicle: Klucel (hydroxypropylcellulose) (HPC)) is 100 % of control; the T/C (dose: 50.0 mg/kg/injection, schedule: Q01DX001 (ip), vehicle: Klucel (hydroxypropylcellulose) (HPC)) is 96 % of control and 110 % of control; the T/C under setting [9] was 102 % of control; the T/C under setting [3] is 102 % of control; the T/C (dose: 100.0 mg/kg/injection, schedule: Q01DX001 (ip), vehicle: Klucel (hydroxypropylcellulose) (HPC)) was 97 % of control and 98 % of control. Besides, the T/C reads like this: under setting [10], 102 % of control; (dose: 200.0 mg/kg/injection, schedule: Q01DX001 (ip), vehicle: Klucel (hydroxypropylcellulose) (HPC)) 102 % of control and 107 % of control; under setting [11], 100 % of control; (dose: 400.0 mg/kg/injection, schedule: Q01DX001 (ip), vehicle: Klucel (hydroxypropylcellulose) (HPC)) 105 % of control; under setting [12], 90 % of control.
For the compound `CCCCNC(=O)c1ncccc1C(=O)O`, the T/C reads like this: under setting [10], 111 % of control; (dose: 100.0 mg/kg/injection, schedule: Q04DX003 (ip), vehicle: carboxymethylcellulose (CMC)) 102 % of control; under setting [11], 103 % of control; (dose: 200.0 mg/kg/injection, schedule: Q04DX003 (ip), vehicle: carboxymethylcellulose (CMC)) 95 % of control; under setting [12], 97 % of control.
Take `COc1cc(/C=C2/SC(=S)NC2=O)cc(OC)c1OC`: the T/C was 96 % of control under setting [13]; 100 % of control under setting [6]; 92 % of control under setting [14]; 100 % of control under setting [7]; 97 % of control (dose: 400.0 mg/kg/injection, schedule: Q01DX009 (ip), vehicle: saline with Tween-80); 117 % of control under setting [8].
For `O=C(O)CCCc1ccc2ccccc2n1`, the T/C (dose: 50.0 mg/kg/injection, schedule: Q01DX001 (ip), vehicle: alkali diluted with saline) is 101 % of control; the T/C (dose: 100.0 mg/kg/injection, schedule: Q01DX001 (ip), vehicle: alkali diluted with saline) is 103 % of control; the T/C (dose: 200.0 mg/kg/injection, schedule: Q01DX001 (ip), vehicle: alkali diluted with saline) is 97 % of control; the T/C (dose: 400.0 mg/kg/injection, schedule: Q01DX001 (ip), vehicle: alkali diluted with saline) is 103 % of control.
With `COc1cccc(C(=O)O)c1OC`, the T/C runs as follows: (dose: 100.0 mg/kg/injection, schedule: Q04DX003 (ip), vehicle: saline sonified) 95 % of control; (dose: 200.0 mg/kg/injection, schedule: Q04DX003 (ip), vehicle: saline sonified) 95 % of control; (dose: 400.0 mg/kg/injection, schedule: Q04DX003 (ip), vehicle: saline sonified) 97 % of control.
For the compound `NC(=O)CNC(=O)OCc1ccccc1`, the T/C runs as follows: under setting [4], 102 % of control; under setting [15], 94 % of control; under setting [5], 94 % of control; under setting [16], 105 % of control; under setting [17], 107 % of control; under setting [18], 94 % of control.
Regarding `CCC(C)c1ccc(-c2ccc(OC)cc2)cc1` (stereo not drawn), the T/C by setting is: under setting [6], 86 % of control; under setting [7], 86 % of control.
On to `CCOC(=O)CN1CC(=O)OC(C(Cl)(Cl)Cl)C1` (stereo not drawn), for which the T/C is, setting by setting: under setting [6], 98 % of control; under setting [7], 90 % of control; under setting [8], 93 % of control.
Regarding `O=C(Nc1ccc(C2=NCCCN2)cc1)Nc1ccc(NC(=O)Nc2ccc(C3=NCCCN3)cc2)c(Cl)c1`, the T/C was 163 % of control (dose: 62.0 mg/kg/injection, schedule: Q01DX Z (ip), vehicle: carboxymethylcellulose (CMC)); 110 % of control (dose: 62.0 mg/kg/injection, schedule: Q01DX Z (oral), vehicle: carboxymethylcellulose (CMC)); 110 % of control (dose: 125.0 mg/kg/injection, schedule: Q01DX Z (oral), vehicle: carboxymethylcellulose (CMC)); 116 % of control (dose: 250.0 mg/kg/injection, schedule: Q01DX Z (oral), vehicle: carboxymethylcellulose (CMC)); 111 % of control (dose: 500.0 mg/kg/injection, schedule: Q01DX Z (oral), vehicle: carboxymethylcellulose (CMC)).
For `CCCCCCCCCCCCC1CC(=O)OC1=O` (stereo not drawn), the T/C by setting is: under setting [4], 97 % of control; under setting [15], 93 % of control; under setting [5], 95 % of control; under setting [16], 91 % of control.
Take `O=C(O)C1CCC(C(=O)O)CC1` (stereo not drawn): the T/C reads like this: under setting [9], 101 % of control; under setting [10], 88 % of control; under setting [12], 98 % of control.
For `CCOC(CN1C(=O)c2ccccc2C1=O)OCC`, the T/C is, setting by setting: (dose: 50.0 mg/kg/injection, schedule: Q01DX009 (ip), vehicle: saline with Tween-80) 96 % of control; under setting [13], 96 % of control; under setting [14], 93 % of control.
Turning to `O=c1[nH][nH]c(=S)c2[nH]c(=S)n(Cc3ccccc3)c12`, the T/C runs as follows: (dose: 100.0 mg/kg/injection, schedule: Q01DX001 (ip), vehicle: saline) 90 % of control; (dose: 200.0 mg/kg/injection, schedule: Q01DX001 (ip), vehicle: saline) 93 % of control; (dose: 400.0 mg/kg/injection, schedule: Q01DX001 (ip), vehicle: saline) 90 % of control.
With `C=C1C(=O)OC2C1CCC(C)C1(O)C=CC(=O)C21C` (stereo not drawn), the T/C was 98 % of control (dose: 6.25 mg/kg/injection, schedule: Q01DX009 (ip), vehicle: saline); 98 % of control (dose: 12.5 mg/kg/injection, schedule: Q01DX009 (ip), vehicle: saline); 101 % of control under setting [1]; 103 % of control under setting [2].
Take `COc1ccc(C2CCCCC2O)cc1` (stereo not drawn): the T/C was 94 % of control under setting [4]; 97 % of control under setting [15]; 99 % of control under setting [5]; 91 % of control under setting [16]; 99 % of control under setting [17]; 93 % of control under setting [18].
As to `CCCP(CCC)c1ccccc1`, the T/C is 96 % of control (dose: 100.0 mg/kg/injection, schedule: Q01DX009 (sc), vehicle: olive oil, sesame oil, peanut oil); 93 % of control (dose: 100.0 mg/kg/injection, schedule: Q04DX003 (sc), vehicle: olive oil, sesame oil, peanut oil); 113 % of control (dose: 200.0 mg/kg/injection, schedule: Q01DX009 (sc), vehicle: olive oil, sesame oil, peanut oil); 95 % of control (dose: 200.0 mg/kg/injection, schedule: Q04DX003 (sc), vehicle: olive oil, sesame oil, peanut oil); 100 % of control (dose: 400.0 mg/kg/injection, schedule: Q01DX009 (sc), vehicle: olive oil, sesame oil, peanut oil); 91 % of control (dose: 400.0 mg/kg/injection, schedule: Q04DX003 (sc), vehicle: olive oil, sesame oil, peanut oil).
